Reference: patent US20060147481A1 (priority 2005, published 2006)

What was measured:
platelet cyclo-oxygenase = conditions: horse, oral; cited from earlier work
swine influenza = format: in vivo, swine (finishing hogs)
chronic laminitis = assay: Horse with chronic laminitis, Ketoprofen in the water; format: in vivo; conditions: 1 mg per pound in the water for 2 weeks
Text: An equine client with a horse with chronic laminitis was using phenylbutazone to try to control the inflammation and pain associated with the disease. This product had to be given to the horse daily by the owner. […] The results were very good.

[1] = test system: PRRS (Porcine Respiratory and Reproductive Syndrome) Virus; assay: PRRS virus outbreak in swine nursery, Ketoprofen orally; format: in vivo; conditions: orally for 7 days along with same other therapy as controls
Text: A swine client with a 10,000 head nursery was experiencing severe mortality due to a PRRS (Porcine Respiratory and Reproductive Syndrome) Virus outbreak. They had used antibiotics with only partial success and were seeing mortalities as high as 30 percent in the group. […] We also saw less chronic pigs in the treatment group 3% versus 15% in the controls.

[2] = 1 mg/pound for 3 days orally through drinking water

Structure (SMILES)	duration of inhibition of platelet cyclo-oxygenase (platelet cyclo-oxygenase)	morbidity at the time of the outbreak (swine influenza; [2])	mortality (swine influenza; [2])	average time to market, less than the control group (swine influenza; 1 mg/pound for 3 days orally through drinking water, 150 pound hogs marketed at 260 pounds)	follow-up mass medication with antibiotics (swine influenza; two weeks after the outbreak)	pain compared with previous treatment (phenylbutazone) (chronic laminitis)	chronic pigs [1]	mortality [1]
CN=C1CCN(c2cccc(C(F)(F)F)c2)N1 [BW540C]	24 h							
CC(C(=O)O)c1cccc(C(=O)c2ccccc2)c1 (centres unmarked) [Ketoprofen]		10%	2.1%	9 days	did not require any mass medication with antibiotics	less painful	3%	7%
